# Measurements published in PMC12163485 (Drug Metabolism and Disposition, 2025).
# T1: human OCT1 (hOCT1) (Homo sapiens, UniProt O15245)
# T1 sequence (O15245 1-554): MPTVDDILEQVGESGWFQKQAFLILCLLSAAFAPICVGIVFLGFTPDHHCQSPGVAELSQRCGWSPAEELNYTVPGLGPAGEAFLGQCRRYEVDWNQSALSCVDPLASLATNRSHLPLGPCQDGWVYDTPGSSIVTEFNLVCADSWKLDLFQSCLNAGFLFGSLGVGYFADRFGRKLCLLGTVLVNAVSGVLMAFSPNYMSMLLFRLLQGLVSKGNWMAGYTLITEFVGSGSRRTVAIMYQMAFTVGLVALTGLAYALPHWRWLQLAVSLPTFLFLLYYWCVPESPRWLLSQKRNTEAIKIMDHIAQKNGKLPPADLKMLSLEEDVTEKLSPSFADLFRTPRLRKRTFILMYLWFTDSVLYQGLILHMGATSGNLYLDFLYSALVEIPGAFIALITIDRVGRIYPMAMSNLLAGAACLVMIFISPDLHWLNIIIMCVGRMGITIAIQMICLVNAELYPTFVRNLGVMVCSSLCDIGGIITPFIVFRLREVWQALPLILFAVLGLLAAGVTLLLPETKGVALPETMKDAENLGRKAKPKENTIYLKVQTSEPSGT
# T2: OCT1 (Homo sapiens, UniProt O15245)
# T2 sequence (O15245 1-554): T1 sequence (O15245 1-554)
# T3: mouse OCT1 (Mus musculus, UniProt O08966)
# T3 sequence (O08966 1-556): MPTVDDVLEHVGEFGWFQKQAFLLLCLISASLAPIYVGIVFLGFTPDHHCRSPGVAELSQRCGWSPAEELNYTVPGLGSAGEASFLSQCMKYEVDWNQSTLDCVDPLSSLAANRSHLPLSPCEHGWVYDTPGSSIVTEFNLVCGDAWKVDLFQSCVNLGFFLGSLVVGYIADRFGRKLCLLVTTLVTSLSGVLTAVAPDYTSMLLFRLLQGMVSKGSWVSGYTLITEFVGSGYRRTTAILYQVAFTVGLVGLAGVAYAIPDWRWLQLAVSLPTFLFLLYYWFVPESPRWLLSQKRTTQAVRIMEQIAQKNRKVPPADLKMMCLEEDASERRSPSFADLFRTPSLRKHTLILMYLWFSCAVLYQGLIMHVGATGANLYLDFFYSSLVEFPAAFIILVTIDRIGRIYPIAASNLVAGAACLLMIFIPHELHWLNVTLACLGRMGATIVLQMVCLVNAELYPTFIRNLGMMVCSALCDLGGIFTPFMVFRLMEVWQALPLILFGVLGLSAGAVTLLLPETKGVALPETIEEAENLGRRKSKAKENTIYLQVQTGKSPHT
# T4: human OCTN1 (hOCTN1) (Homo sapiens, UniProt Q9H015)
# T4 construct: expressed in transfected cells
# T4 sequence (Q9H015 1-551): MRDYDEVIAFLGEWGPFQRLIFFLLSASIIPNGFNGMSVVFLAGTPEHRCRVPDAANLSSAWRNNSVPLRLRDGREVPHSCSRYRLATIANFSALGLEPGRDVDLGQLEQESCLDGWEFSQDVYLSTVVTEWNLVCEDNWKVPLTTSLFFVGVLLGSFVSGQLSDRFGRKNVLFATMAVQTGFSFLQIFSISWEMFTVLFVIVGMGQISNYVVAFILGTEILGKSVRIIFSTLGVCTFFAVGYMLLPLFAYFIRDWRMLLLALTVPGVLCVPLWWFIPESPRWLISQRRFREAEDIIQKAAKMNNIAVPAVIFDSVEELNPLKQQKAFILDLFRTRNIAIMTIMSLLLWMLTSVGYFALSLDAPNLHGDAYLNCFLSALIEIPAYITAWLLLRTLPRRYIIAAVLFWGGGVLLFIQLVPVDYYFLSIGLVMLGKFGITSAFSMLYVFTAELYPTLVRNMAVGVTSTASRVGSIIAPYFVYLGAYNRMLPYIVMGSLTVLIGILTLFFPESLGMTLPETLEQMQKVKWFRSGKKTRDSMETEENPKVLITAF
# B1: human OCT1 (hOCT1) (Homo sapiens) (protein)
# chain: T1 sequence (O15245 1-554)
# notes: expressed in transfected cells; empty vector control pcDNA5
# Legend:
# human OCT1 (hOCT1) = target: T1, human OCT1 (hOCT1); set-up: expressed in transfected cells; empty vector control pcDNA5; method as in ref column References of Table 2 (Tzvetkov et al, 2018; Morse et al, 2020; Jensen et al, 2020; Meyer et al, 2019, 2022; Wittern et al, 2024 and own unpublished data; Elsby et al, 2017); details: literature values; References of Table 2 (Tzvetkov et al, 2018; Morse et al, 2020; Jensen et al, 2020; Meyer et al, 2019, 2022; Wittern et al, 2024 and own unpublished data; Elsby et al, 2017); cited from earlier work
# mOct1 = tested on: mOct1; set-up: method as in ref column References of Table 2 (Morse et al, 2020; Jensen et al, 2020; Meyer et al, 2022); details: literature values; References of Table 2 (Morse et al, 2020; Jensen et al, 2020; Meyer et al, 2022); cited from earlier work
# [1] = Pharmacokinetic parameters used for estimating the potential for DDIs; format: in vivo, human
# Description: Ka was calculated manually based on available pharmacokinetic parameters.
# [2] = cited from earlier work; for cmax = Imax: dose and route as in Supplemental Table 4, ref Hardman, 2018, fenoterol Tzvetkov et al; for cmax = Imax / fraction unbound: ipratropium Zhang et al, 2023; for fraction unbound: fraction unbound in plasma, ref Hardman, 2018, Lombardo et al (2018), fenoterol Tzvetkov et al; for t1/2: ref Hardman, 2018, fenoterol Tzvetkov et al
# OCT1 [3] = target: T2, OCT1; assay: DDI risk R calculated from IC50 at human OCT1; details: R=1+fup×Iin,max/IC50, cutoff R ≥ 1.1
# OCT1 [4] = details: ref Tzvetkov et al, 2018 (fenoterol); Matthaei et al, 2016 (sumatriptan); cited from earlier work
# OCT1 [5] = target: T2, OCT1; assay: Uptake of the cocktail by HEK293 cells overexpressing human OCT1
# Description: (§1) Significance was calculated using Mann–Whitney U test. n = 5–8 independent experiments.
# OCT1 [6] = details: read-out: inhibitory potency for metformin uptake via OCT1; substrate metformin; ref Ahlin et al, 2011; Panfen et al, 2019; cited from earlier work
# mouse OCT1 = target: T3, mouse OCT1; assay: Uptake of the cocktail by HEK293 cells overexpressing mouse Oct1
# Description: as §1
# human OCTN1 (hOCTN1) = target: T4, human OCTN1 (hOCTN1); assay: Uptake of the extended cocktail by HEK293 cells overexpressing hOCTN1; format: in vitro ADME; details: Fig. 6
# [7] = substrate: CC(Cc1ccc(O)cc1)NCC(O)c1cc(O)cc(O)c1; assay: cells, lysate or membranes named; details: mean ± SD, pH 7.4
# [8] = substrate: O=C(O[C@H]1C[C@H]2CC[C@@H](C1)[N+]21CCCC1)C(O)(c1ccccc1)c1ccccc1; assay: Transport kinetics (KM, vmax) of OCT1-mediated uptake, HEK293 cells overexpressing human OCT1; format: in vitro ADME; details: mean ± SD, pH 7.4
# [9] = Iin,max=Imax+Fa×ka×D/Qh, Qh 97 L/h, Fa 1, Imax for fenoterol and ipratropium
# [10] = unbound maximum inhibitor concentration at the inlet of the liver
# [11] = other: hOCT1, substrate tested alone
# [12] = other: hOCT1, substrate tested in cocktail
molecule,measurement,setting,value
"C[N@+]1(CC2CC2)CC[C@]23c4c5ccc(O)c4O[C@H]2C(=O)CC[C@@]3(O)[C@H]1C5 [Methylnaltrexone, methylnaltrexone]",Km,human OCT1 (hOCT1),15.2 µM
same,Km,mOct1,8.61 µM
"CC(C)[N+]1(C)[C@@H]2CC[C@H]1C[C@@H](OC(=O)C(CO)c1ccccc1)C2 (stereo partly shown) [Ipratropium, ipratropium]","Imax, portal",[1]; [9],0.08 ng/mL
same,"I max, portal, u",[1]; [10],0.0002 µM
"CC(Cc1ccc(O)cc1)NCC(O)c1cc(O)cc(O)c1 (stereo not shown) [Fenoterol, fenoterol]",cmax = Imax,[2],1.23 ng/mL
same,fraction unbound,[2],0.53
same,t1/2,[2],1.27 h
same,"DDI risk R, victim drug ipratropium",OCT1 [3],1.00
same,"DDI risk R, victim drug metformin",OCT1 [3],1.00
same,"DDI risk R, victim drug methylnaltrexone",OCT1 [3],1.00
same,"DDI risk R, victim drug salbutamol",OCT1 [3],1.00
same,"DDI risk R, victim drug sumatriptan",OCT1 [3],1.00
same,"DDI risk R, victim drug trospium",OCT1 [3],1.00
same,"DDI risk R, victim drug zolmitriptan",OCT1 [3],1.00
same,increase in systemic exposure in individuals homozygous for OCT1 loss-of-function genetic variants,OCT1 [4],2 fold
same,"Imax, portal",[1]; [9],1.23 ng/mL
same,"I max, portal, u",[1]; [10],0.0021 µM
same,Km,human OCT1 (hOCT1),1.8 µM
same,transport by OCT1,"OCT1 [5]; extended cocktail, Fig. 6",transported only by OCT1
"COc1cc(Cc2cnc(N)nc2N)cc(OC)c1OC [Trimethoprim, trimethoprim]",cmax = Imax,[2],1200 ng/mL
same,fraction unbound,[2],0.63
same,tmax,"[2]; p.o., ref Hardman, 2018",2.00 h
same,t1/2,[2],10.00 h
same,"I max, portal, u","[1]; human, in vivo",8.53 µM
same,"Imax, portal","[1]; human, in vivo",3932 ng/mL
same,ka,"[1]; human, in vivo",1.66 h⁻¹
same,k el,"[1]; human, in vivo, po",1.92e-05 s⁻¹
"CN(C)CCc1c[nH]c2ccc(C[C@H]3COC(=O)N3)cc12 [Zolmitriptan, zolmitriptan]",Km,human OCT1 (hOCT1),105 µM
same,human OCT1 uptake [fold change to pcDNA5],"OCT1 [5]; cocktail, fold change to the negative control, n = 12",6.6 fold change to pcDNA5
same,mouse Oct1 uptake [fold change to pcDNA5],"mouse OCT1; fold change to the negative control, n = 12",7.6 fold change to pcDNA5
C[N+](C)(C)[C@@H](Cc1c[nH]c(=S)[nH]1)C(=O)[O-] [L-ergothioneine],transport by OCTN1,human OCTN1 (hOCTN1),transported both L-carnitine and L-ergothioneine
"CC(C)(C)NCC(O)c1ccc(O)c(CO)c1 (stereo not shown) [Salbutamol, salbutamol]",Km,human OCT1 (hOCT1),310 µM
same,uptake stronger in mouse than in human OCT1,mouse OCT1; ratio mouse/human,4.5 fold
same,Km,mOct1,52.2 µM
"COc1ccc(CCN(C)CCCC(C#N)(c2ccc(OC)c(OC)c2)C(C)C)cc1OC (stereo not shown) [Verapamil, verapamil]","Imax, portal",[1]; [9],3550 ng/mL
same,ka,"[1]; first-order absorption rate constant, calculated manually from available pharmacokinetic parameters",2.65 h⁻¹
B1,Km,[7]; [11],0.94 ± 0.24 µM
same,Km,[7]; [12],0.95 ± 0.38 µM
same,Km,[8]; [11],16.9 ± 2.46 µM
same,Vmax,[8]; [11],0.000647 µmol/min/mg
same,Km,[8]; [12],13.9 ± 1.61 µM
same,Vmax,[8]; [12],0.000637 µmol/min/mg
